The text below walks through data of patent US20230137943A1, “PHOTOPROXIMITY PROFILING OF PROTEIN-PROTEIN INTERACTIONS IN CELLS” (The University of Chicago, priority 2019, published 2023).

For data set [1], the system named is HEK293T cells stably expressing SNAP-FLAG. Briefly: Viability assay (CellTiter-Glo, relative ATP content). The data set is classed as cell-based, human. The conditions noted are these: 2 hours at 37° C. As for the experimental part: Viability assay: HEK293T cells stably expressing SNAP-FLAG were seeded with at 5,000 cells per well in 50 μL DMEM in a 96-well plate. Twenty-four hours later, cells were treated with a varying concentration (0, 0.5, 1, 5, 15, 45 μM in sextuplicate) of photoproximity probe PP1 in a total volume of 100 μL DMEM. After 2 hours at 37° C., a 100 μL of CellTiter-Glo® (Promega Corporation, Madison, Wis., United States of America; 5-fold DPBS dilution) was added and the plate imaged using a SYNERGY™ Neo HST plate reader (BioTek, Winooski, Vt., United States of America).
To determine if AC1 affects cell viability, a viability assay was performed. Briefly, HEK293T cells stably expressing Snap-Flag were seeded at 5,000 cells per well in 100 μL DMEM in a 96-well plate. Upon >90% confluency, media was gently removed and cells were treated with a varying concentration (0, 1, 5, 10, 15, 20, 50 uM) in sextuplicate of AC-1 in a total volume of 75 μL DMEM. After 2 hours at 37° C., media was aspirated and cells were gently washed with […] of serum free DMEM. […] Luminescence was recorded using a SYNERGY™ Neo HST plate reader (BioTek, Winooski, Vt., United States of America).
HEK293T cells stably expressing Snap-Flag were seeded at 5,000 cells per well in 100 μL DMEM in a 96-well plate. […] Luminescence was recorded using a SYNERGY™ Neo HST plate reader (BioTek, Winooski, Vt., United States of America).

For data set [2], the target named is T1, FLAG-tagged SNAP-Tag protein (SNAP-FLAG) (Homo sapiens, UniProt P16455, A127T/A154D/C150Q/C62A/E30R/G131K/G132T/G153L/K125A/K32I/L33F/M134L/N157G/Q115S/Q116H/R128A/R135S/S151G/S152D/S159E).
T1 construct: expressed in transfected cells
T1 sequence (P16455 1-182 E30R/K32I/L33F/C62A/Q115S/Q116H/K125A/A127T/R128A/G131K/G132T/M134L/R135S/C150Q/S151G/S152D/G153L/A154D/N157G/S159E limits assumed): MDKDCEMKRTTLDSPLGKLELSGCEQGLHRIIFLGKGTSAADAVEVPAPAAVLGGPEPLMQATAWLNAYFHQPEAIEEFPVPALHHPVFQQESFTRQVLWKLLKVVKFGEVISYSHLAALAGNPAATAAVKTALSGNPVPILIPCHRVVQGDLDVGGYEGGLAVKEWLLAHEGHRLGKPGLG
Briefly: PP1 dose response: covalent labeling of SNAP-FLAG in live cells (Western blot). The data set is classed as cell-based. Particulars: HEK293T cells stably expressing SNAP-FLAG, increasing doses for two hours, not irradiated. As for the experimental part: PP1 close response and viability assay: Dose response—Each well of a 6-well plate was seeded with 300,000 HEK293T cells stably expressing either SNAP-FLAG or KEAP-SNAP. After reaching ˜90% confluency the growth media was removed, cells washed with DPBS, and treated with varying concentrations (0, 0.5, 1, 5, 15, 45 μM) of photoproximity probe PP1 in 500 μL serum-free DMEM for 2 hours at 37° C. Post treatment, media was aspirated and non-reacted probe washed out with 3 mL full DMEM over 40 minutes, changing the media twice. Cells were harvested, washed, and lysed in DPBS containing protease inhibitor using a tip sonicator. Lysate was normalized to 1 mg/mL then diluted with loading buffer and run on SDS-PAGE gel that was transferred by western blot to nitrocellulose. The nitrocellulose membrane was stained for biotin and Flag-Tag using streptavidin IR dye (Li-cor #926-32230; Li-cor Biosciences, Lincoln, Nebr., United States of America) and anti-Flag (Sigma #F3165, Sigma-Aldrich, St. Louis, Mo., United States of America; Li-cor #926-68072, Li-cor Biosciences, Lincoln, Nebr., United States of America). Fluorescence images were collected using an Odyssey infrared imager (Li-cor Biosciences, Lincoln, Nebr., United States of America). […]
On the technique in general: In western blotting, separated proteins are transferred to a membrane and probed.

A word on the EC50: it is the concentration needed to bring the measured effect to its halfway point. Lower therefore signals an effect from little substance.

As to `COc1cc(COC(=O)NC(CCCCNC(=O)CCC2(C)N=N2)C(=O)NCCCCC2SCC3NC(=O)NC32)c([N+](=O)[O-])cc1OCCCC(=O)NCc1ccc(COc2nc(N)nc3[nH]cnc23)cc1` (stereo not drawn) [AC1], the “Cell growth or viability” value in data set [1] (AC1 0-50 uM) was “does not impair cell growth or viability”.
Regarding `COc1cc(C(C)OC(=O)NC(CCCCNC(=O)CCC2(C)N=N2)C(=O)NCCCCCNC(=O)CCCCC2SCC3NC(=O)NC32)c([N+](=O)[O-])cc1OCCCC(=O)NCc1ccc(COc2nc(N)nc3[nH]cnc23)cc1` (stereo not drawn) [PP1], in data set [2], the midpoint of the response, the EC50, lay at 4.5 µM. Further, in data set [1] (PP1 0-45 μM (saturating doses)), the Cell viability result is listed as “not affected”.
